Measured values taken from patent publication US9957261B2 (Hoffmann-La Roche Inc., priority 2014, dated 2018).

Experiments:
[1] = target: rat TAAR1 (Rattus norvegicus (Rat), UniProt Q923Y9); assay: Radioligand binding assay on rat TAAR1; settings: rat TAAR1, membranes of stably transfected HEK-293 cells; second value of mouse/rat pair
How it was run: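 Competition binding with [3H]-(S)-4-[(ethyl-phenyl-amino)-methyl]-4,5-dihydro-oxazol-2-ylamine on membranes from HEK293 cells stably expressing rat TAAR1, in HEPES-NaOH pH 7.4. Compounds spanned 10 pM-10 μM in duplicate, incubated 1 h at 4 °C, with nonspecific binding set by 10 μM unlabeled ligand. Filtration followed by scintillation counting.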

[2] = target: mouse TAAR1 (Mus musculus (Mouse), UniProt Q923Y8); assay: Radioligand binding assay on mouse TAAR1; settings: mouse TAAR1, membranes of stably transfected HEK-293 cells; first value of mouse/rat pair
How it was run: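 Membranes from HEK293 cells stably expressing mouse TAAR1, in HEPES-NaOH pH 7.4; displacement of ³H-(S)-4-[(ethyl-phenyl-amino)-methyl]-4,5-dihydro-oxazol-2-ylamine, nonspecific binding with 10 μM unlabeled ligand.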

Sequence of mouse TAAR1 (Q923Y8 whole entry): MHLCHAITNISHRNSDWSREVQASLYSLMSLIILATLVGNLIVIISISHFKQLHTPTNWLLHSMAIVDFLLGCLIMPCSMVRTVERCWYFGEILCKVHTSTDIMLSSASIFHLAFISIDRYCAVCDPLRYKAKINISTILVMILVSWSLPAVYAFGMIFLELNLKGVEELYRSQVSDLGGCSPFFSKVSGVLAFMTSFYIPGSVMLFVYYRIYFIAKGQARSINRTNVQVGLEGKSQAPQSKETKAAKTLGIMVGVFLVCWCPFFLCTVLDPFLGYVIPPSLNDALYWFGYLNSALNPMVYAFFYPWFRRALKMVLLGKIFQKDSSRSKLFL
Sequence of rat TAAR1 (Q923Y9 whole entry): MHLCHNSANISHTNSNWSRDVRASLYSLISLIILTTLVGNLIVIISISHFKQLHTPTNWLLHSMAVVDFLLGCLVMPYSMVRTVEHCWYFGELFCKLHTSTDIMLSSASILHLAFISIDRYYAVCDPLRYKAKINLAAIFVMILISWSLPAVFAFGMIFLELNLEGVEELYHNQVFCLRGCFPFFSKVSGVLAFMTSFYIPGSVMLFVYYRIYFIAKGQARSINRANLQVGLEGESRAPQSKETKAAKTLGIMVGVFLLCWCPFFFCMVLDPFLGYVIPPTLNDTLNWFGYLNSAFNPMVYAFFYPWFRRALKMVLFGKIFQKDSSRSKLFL

| Compound | Ki [1] [µM] | Ki [2] [µM] |
| --- | --- | --- |
| COc1ccc(C(=O)Nc2ccc3c(c2)CC[C@H](N)C3)cn1 [Example 21, (S)—N-(6-Amino-5,6,7,8-tetrahydronaphthalen-2-yl)-6-methoxynicotinamide] | 0.0513 | 0.0344 |
| CCn1nc(C(=O)Nc2ccc3c(c2)CC[C@H](N)C3)c(Br)c1OCC(F)F [Example 52, (S)—N-(6-Amino-5,6,7,8-tetrahydronaphthalen-2-yl)-4-bromo-5-(2,2-difluoroethoxy)-1-ethyl-1H-pyrazole-3-carboxamide] | 0.0016 | 0.0128 |
| Cc1cc(C(=O)Nc2ccc3c(c2)OCC(N)C3)nc(C(F)(F)F)n1 (stereo not shown) [Example 9, N-(3-Aminochroman-7-yl)-6-methyl-2-(trifluoromethyl)pyrimidine-4-carboxamide] | 0.114 | 0.0805 |
| N[C@H]1CCc2cc(NC(=O)Nc3ccc(C4CC4)cc3)ccc2C1 [Example 72, (S)-1-(6-Amino-5,6,7,8-tetrahydronaphthalen-2-yl)-3-(4-cyclopropylphenyl)urea] | 0.0009 | 0.001 |
| NC1CCc2cc(C(=O)Nc3ccc(F)cc3)ccc2C1 (stereo not shown) [Example 58, 6-Amino-N-(4-fluorophenyl)-5,6,7,8-tetrahydronaphthalene-2-carboxamide] | 0.0964 | 0.0569 |
| NC1CCc2cc(C(=O)Nc3ccc(Cl)cc3)ccc2C1 (stereo not shown) [Example 57, 6-Amino-N-(4-chlorophenyl)-5,6,7,8-tetrahydronaphthalene-2-carboxamide] | 0.0142 | 0.0116 |
| Cc1ccc(-n2cc(C(=O)Nc3ccc4c(c3)CC[C@H](N)C4)cn2)cc1 [Example 27, (S)—N-(6-Amino-5,6,7,8-tetrahydronaphthalen-2-yl)-1-p-tolyl-1H-pyrazole-4-carboxamide] | 0.0037 | 0.0028 |
| N[C@H]1CCc2cc(Nc3ncc(C(F)(F)F)cn3)ccc2C1 [Example 23, (S)—N6-(5-(Trifluoromethyl)pyrimidin-2-yl)-1,2,3,4-tetrahydronaphthalene-2,6-diamine] | 0.0068 | 0.0213 |
